Tested on: Factor VII
Assay: In vivo Factor VII silencing assay, serum Factor VII by chromogenic kit
Parameters: species or system C57BL/6 mice
Details: 2 mg/kg siRNA; FIG. 1; suggested, 5 tail and/or 6 tail, most abundant species in ND98 6:1 preparation
Experimental: Applicants have discovered that certain polyamine lipid moieties provide desirable properties for administration of nucleic acids, such as siRNA. For example, in some embodiments, a lipid moiety is complexed with a Factor VII-targeting siRNA and administered to an animal such as a mouse. The level of secreted serum Factor VII is then quantified (24 h post administration), where the degree of Factor VII silencing indicates the degree of in vivo siRNA delivery. Accordingly, lipids providing enhanced in vivo delivery of a nucleic acid such as siRNA are preferred. In particular, Applicants have discovered polyamines having substitutions described herein can have desirable properties for delivering siRNA, such as bioavailability, biodegradability, and tolerability.
C57BL/6 mice received tail vein injections of saline or various lipid formulations. Lipid-formulated siRNAs are administered at varying doses in an injection volume of 10 μL/g animal body weight. Twenty-four hours after administration, serum samples are collected by retroorbital bleed. Serum Factor VII concentrations are determined using a chromogenic diagnostic kit (Coaset Factor VII Assay Kit, DiaPharma) according to manufacturer protocols.
The effectiveness of lipid compositions can be tested by determining the relative ability of a lipid to deliver an siRNA moiety to a target. […]

Compound: CCCCCCCCCCCCNC(=O)CCN(CCC(=O)NCCCCCCCCCCCC)CCN(CCC(=O)NCCCCCCCCCCCC)CCN(CCC(=O)NCCCCCCCCCCCC)CCN(CCC(=O)NCCCCCCCCCCCC)CCC(=O)NCCCCCCCCCCCC [Compound 5]
- FVII silencing, active lipid species: active species

Reference: patent US9663449B2, “Lipid containing formulations” (ARBUTUS BIOPHARMA CORPORATION, priority 2006, dated 2017)
